Source: patent publication EP0216105A1, “Diazaphosphorines, process for their preparation and their use as pesticide” (priority 1985, dated 1987)

Assays:
Caenorhabditis elegans = assay: In vitro nematode test; conditions: concentration at which reproduction is prevented, 7 days at 22°C; for minimal effective concentration: Caenorhabditis elegans, 168 h, read-out: Dosis effectiva
Procedure: 10-^4 g Wirkstoff wurden in 1 ml Wasser oder 0,1 ml Dimethylsulfoxid (DMSO) gelöst. Diese Lösung wurde auf eine Replica-Platte gegeben. Dazu wurden 2 ml einer E-coli-Suspension gegeben, in der man 10-20 weibliche Tiere oder Larven von Caenorhabditis elegans in 0,5 ml M9 Pufferlösung gegeben hat. Die E-coli-Suspension wurde hergestellt indem man 300 ml einer Ubernachthalter eines Uracil-bedürftigen E-coli-Stammes mit 1,8 1 steriler M 9 Pufferlösung versetzte.
Der Versuchsansatz wurde 7 Tage bei 22°C inkubiert und danach ausgewertet. Es wurde bewertet inwieweit der Wirkstoff die Vermehrung beeinträchtigt und die Konzentration angegeben bei der die Vermehrung verhindert wird.

[1] = tested on: Mückenlarven (L4) (Aedes aegypti); assay: Aedes test (larvae in aqueous preparation); assay type: in vivo; conditions: 20 Aedes aegypti larvae (L4) per glass; compared with the prior art; figures not given
Source text: • Löcungcmittal: 3 Gewichtsteile Aceton • Emulgator: 1 Gewichtsteil Alkylarylpolyglykolether
Zur Herstellung einer zweckmäßigen Wirkstoffzubereitung vermischt man 1 Gawichtcteil Wirkstoff mit der angegebenen Menge Löcungcmittel und der angegebenen Menge Emulgator und verdünnt das Konzentrat mit Wasser auf die gewünschte Konzentrationen.
Man füllt die wässrigen Wirkctoffzubereitungen in Gläser und setzt anschließend 20 Mückenlarven (L4) (Aedes aegypti) in jedes Glas ein.
Nach der gewünschten Zeit wird die Abtötung in % bestimmt. Dabei bedeutet 100 X, daß alle Tiere abgetötet wurden; 0 % bedeutet, daß keine Tiere abgetötet wurden.

[2] = tested on: Musca domestica-tmultiresistent) Maden; assay: Fly maggot development inhibition test; assay type: in vivo; conditions: Musca domestica maggots on treated filter paper, 14 days; compared with the prior art; figures not given
Procedure: Fliegenmaden-Entwicklungshommungstest Testtiere: Musca domestica-tmultiresistent) Maden Lösungsmittel: Aceton
2 Gewichtsteile Wirkstoff werden in 1 000 Volumenteilen Lösungsmittel aufgenommen. Die so erhaltene Lösung wird mit weiteren Lösungsmitteln auf die gewünschten Konzentrationen verdünnt.
2,5 ml Wirkstofflösung werden in eine Petrischale pipettiert. Auf dem Boden der Petrischale befindet sich ein Filterpapier mit einem Durchmesser von etwa 9,5 cm. Die Petrischale bleibt so lange offen stehen, bis das Lösungsmittel vollständig verdunstet ist. Je nach Konzentration der Wirkstofflösung ist die Menge Wirkstoff pro m^2 Filterpapier verschieden hoch. Anschließend gibt man etwa 25 Testtiere in die Petrischale und bedeckt sie mit einem Glasdeckel.
14 Tage nach Ansetzen der Versuche wird die Zahl der geschlüpften Fliegen kontrolliert. Bestimmt wird der X-Satz der Schlüpfhemmung im Vergleich zur unbehandelten Kontrolle.

[3] = tested on: Larven (L3) des Meerrettichkäfers (Phaedon cochleariae); assay: Phaedon larvae test (treated cabbage leaves); assay type: in vivo; conditions: Phaedon cochleariae larvae (L3) on treated Brassica oleracea leaves; compared with the prior art; figures not given
Source text: (§1) • Lösungsmittel: 3 Gewichtsteile Aceton • Emulgator: 1 Gewichtsteil Alkylarylpolyglykolether
Zur Herstellung einer zweckmäßigen Wirkstoffzubereitung vermischt man 1 Gewichtsteil Wirkstoff mit der angegebenen Menge Lösungsmittel und der angegebenen Menge Emulgator und verdünnt das.Konzentrat mit Wasser auf die gewünschte Konzentration.
Kohlpflanzen (Brassica oleracea) werden mit der Wirkstoffzubereitung der gewünschten Konzentration behandelt. Ein Blatt der behandelten Pflanze wird in eine Plastikdose gelegt und mit Larven (L3) des Meerrettichkäfers (Phaedon cochleariae) besetzt. Nach 2 und 4 Tagen wird jeweils ein weiters Blatt von derselben Pflanze für die Nachfütterung verwendet.
Nach der gewünschten Zeit wird die Abtötung in % bestimmt. Dabei bedeutet 100 X, daß alle Käferlarven abgetötet wurden.

[4] = tested on: Lucilia cuprina res.-Larven; assay: Test with resistant Lucilia cuprina larvae; assay type: in vivo; conditions: horse meat, after 24 hours, compared with the prior art, figures not given
Source text: Test mit Lucilia cuprina resistent-Larven
• Emulgator: 35 Gewichtsteile Ethylenglykolmonomethylether • 35 Gewichtsteile Nonylphenolpolyglykolether
Zur Herstellung einer zweckmäßigen Wirkstoffzubereitung vermischt man drei Gewichtsteile Wirkstoff mit sieben Gewichtsteilen des oben angegebenen Gemisches und verdünnt das so erhaltene Konzentrat mit Wasser auf die jeweils gewünschte Konzentration.
Etwa 20 Lucilia cuprina res.-Larven werden in ein Teströhrchen gebracht, welches ca. 1 cm^3 Pferdefleisch und O,5 ml der Wirkstoffzubereitung enthält. Nach 24 Stunden wird der Abtötungsgrad bestimmt.

[5] = tested on: Raupe (L5) der Art Spodoptera frugiperda; assay: Spodoptera test (treated artificial diet discs); assay type: in vivo; conditions: Spodoptera frugiperda caterpillars (L5) on treated artificial diet; compared with the prior art; figures not given
Source text: as §1
Zur Herstellung einer zweckmäßigen Wirkstoffzubereitung vermischt man 1 Gewichtsteil Wirkstoff mit der angegebenen Menge Lösungsmittel und der angegebenen Menge Emulgator und verdünnt das Konzentrat mit Wasser auf die gewünschte Konzentrationen.
Kunstfutterscheiben, die in Plastikdosen liegen, werden durch Beträufeln mit der Wirkstoffzubereitung der gewünschten Konzentration behandelt. Nach Eindringen der Lösung besetzt man die Plastikdosen mit je 1 Raupe (L5) der Art Spodoptera frugiperda, wobei je Versuchsglied 5 Wiederholungen aufgestellt werden. Nach der Verpuppung legt man die Tiere eines Versuchsglieds in eine größere Dose. Nach der gewünschten Zeit wird die Abtötung in % bestimmt. Dabei bedeutet 100 X, daß alle Tiere abgetötet wurden; 0 X bedeutet, daß keine Tiere abgetötet wurden.

Compound: CN1C(=O)C(C(=O)Nc2ccc([N+](=O)[O-])cc2)C(=O)N(C)P1(=O)Oc1ccc(Cl)cc1 (centres unmarked) [Beispiel 4]
- minimal effective concentration (Caenorhabditis elegans): 10 µg/mL

Compound: CN1C(=O)C(C(=O)Nc2ccc(S(=O)(=O)C(F)(F)F)cc2)C(=O)N(C)P1(=O)Oc1ccc(Cl)cc1 (centres unmarked) [Beispiel 5]
- Dosis effectiva (Caenorhabditis elegans): 10 mg/L

Compound: CN1C(=O)C(C(=O)Nc2ccc(Cl)c(C(F)(F)F)c2)C(=O)N(C)P1(=S)Oc1ccc(Cl)cc1 (centres unmarked) [Beispiel 6]
- Abtötung in % [1]: überlegene Wirksamkeit gegenüber dem Stand der Technik
- minimal effective concentration (Caenorhabditis elegans): 10 µg/mL
- X-Satz der Schlüpfhemmung im Vergleich zur unbehandelten Kontrolle [2]: überlegene Wirksamkeit gegenüber dem Stand der Technik

Compound: CN1C(=O)C(C(=O)Nc2ccc(SC(F)(F)F)cc2)C(=O)N(C)P1(=O)Oc1ccc(Cl)cc1 (centres unmarked) [Beispiel 8]
- Abtötung in % [3]: überlegene Wirksamkeit gegenüber dem Stand der Technik
- Abtötung in % [1]: überlegene Wirksamkeit gegenüber dem Stand der Technik
- Dosis effectiva (Caenorhabditis elegans): 10 mg/L
- Abtötungsgrad [4]: überlegene Wirkung gegenüber dem Stand der Technik

Compound: CN1C(=O)C(C(=O)Nc2ccc(SC(F)(F)F)cc2)C(=O)N(C)P1(=O)Oc1ccccc1 (centres unmarked) [Beispiel 10]
- Abtötung in % [3]: überlegene Wirksamkeit gegenüber dem Stand der Technik
- Abtötung in % [1]: überlegene Wirksamkeit gegenüber dem Stand der Technik
- minimal effective concentration (Caenorhabditis elegans): 10 µg/mL
- Abtötung in % [5]: überlegene Wirksamkeit gegenüber dem Stand der Technik

Compound: CN1C(=O)C(C(=O)Nc2ccccc2SC(F)(F)F)C(=O)N(C)P1(=O)Oc1ccccc1 (centres unmarked) [Beispiel 11]
- minimal effective concentration (Caenorhabditis elegans): 100 µg/mL

Compound: CN1C(=O)C(C(=O)Nc2ccc(S(=O)(=O)C(F)(F)F)cc2)C(=O)N(C)P1(=O)Oc1ccccc1 (centres unmarked) [Beispiel 13]
- minimal effective concentration (Caenorhabditis elegans): 10 µg/mL

Compound: CN1C(=O)C(C(=O)Nc2ccc(OC(F)(F)C(F)F)cc2)C(=O)N(C)P1(=O)Oc1ccccc1 (centres unmarked) [Beispiel 15]
- Abtötung in % [3]: überlegene Wirksamkeit gegenüber dem Stand der Technik
- minimal effective concentration (Caenorhabditis elegans): 10 µg/mL

Compound: CN1C(=O)C(C(=O)Nc2ccc(OC(F)(F)F)cc2)C(=O)N(C)P1(=O)Oc1ccccc1 (centres unmarked) [Beispiel 16]
- Abtötung in % [3]: überlegene Wirksamkeit gegenüber dem Stand der Technik
- Abtötung in % [1]: überlegene Wirksamkeit gegenüber dem Stand der Technik
- minimal effective concentration (Caenorhabditis elegans): 10 µg/mL
- Abtötung in % [5]: überlegene Wirksamkeit gegenüber dem Stand der Technik

Compound: CN1C(=O)C(C(=O)Nc2ccc(OC(F)(F)F)cc2)C(=O)N(C)P1(=O)Oc1ccc(Cl)cc1 (centres unmarked) [Beispiel 17]
- minimal effective concentration (Caenorhabditis elegans): 10 µg/mL
- Abtötung in % [5]: überlegene Wirksamkeit gegenüber dem Stand der Technik

Compound: CN1C(=O)C(C(=O)Nc2ccc([N+](=O)[O-])cc2)C(=O)N(C)P1(=O)Oc1ccc([N+](=O)[O-])cc1 (centres unmarked) [Beispiel 18]
- minimal effective concentration (Caenorhabditis elegans): 100 µg/mL

Compound: COc1ccc(NC(=O)C2C(=O)N(C)P(=O)(Oc3ccc(OC)cc3)N(C)C2=O)cc1 (centres unmarked) [Beispiel 19]
- minimal effective concentration (Caenorhabditis elegans): 100 µg/mL

Compound: COc1ccc(NC(=O)C2C(=O)N(C)P(=O)(Oc3ccc(C)cc3)N(C)C2=O)cc1 (centres unmarked) [Beispiel 20]
- minimal effective concentration (Caenorhabditis elegans): 10 µg/mL

Compound: CN1C(=O)C(C(=O)Nc2ccc(S(=O)(=O)C(F)(F)F)cc2)C(=O)N(C)P1(=O)Oc1ccc(Cl)cc1 (centres unmarked) [Beispiel 26]
- Abtötung in % [1]: überlegene Wirksamkeit gegenüber dem Stand der Technik
- Dosis effectiva (Caenorhabditis elegans): 100 mg/L
- Abtötungsgrad [4]: überlegene Wirkung gegenüber dem Stand der Technik
- X-Satz der Schlüpfhemmung im Vergleich zur unbehandelten Kontrolle [2]: überlegene Wirksamkeit gegenüber dem Stand der Technik

Compound: CN1C(=O)C(C(=O)Nc2ccc(OC(F)(F)F)cc2)C(=O)N(C)P1(=S)Oc1ccc(Cl)cc1 (centres unmarked) [Beispiel 30]
- minimal effective concentration (Caenorhabditis elegans): 10 µg/mL
- Abtötung in % [5]: überlegene Wirksamkeit gegenüber dem Stand der Technik
- X-Satz der Schlüpfhemmung im Vergleich zur unbehandelten Kontrolle [2]: überlegene Wirksamkeit gegenüber dem Stand der Technik

Compound: CN1C(=O)C(C(=O)Nc2ccc(SC(F)(F)F)cc2)C(=O)N(C)P1(=S)Oc1ccccc1 (centres unmarked) [Beispiel 33]
- minimal effective concentration (Caenorhabditis elegans): 10 µg/mL
- Abtötungsgrad [4]: überlegene Wirkung gegenüber dem Stand der Technik

Compound: CN1C(=O)C(C(=O)Nc2ccc(SC(F)(F)F)cc2)C(=O)N(C)P1(=S)Oc1ccc(Cl)cc1 (centres unmarked) [Beispiel 34]
- minimal effective concentration (Caenorhabditis elegans): 100 µg/mL
- Abtötungsgrad [4]: überlegene Wirkung gegenüber dem Stand der Technik
- Abtötung in % [5]: überlegene Wirksamkeit gegenüber dem Stand der Technik

Compound: CN1C(=O)C(C(=O)Nc2ccc(SC(F)(F)F)cc2)C(=O)N(C)P1(=O)Oc1cccc(Cl)c1 (centres unmarked) [Beispiel 37]
- minimal effective concentration (Caenorhabditis elegans): 10 µg/mL

Compound: CN1C(=O)C(C(=O)Nc2ccc(OC(F)(F)F)cc2)C(=O)N(C)P1(=O)Oc1cccc(Cl)c1 (centres unmarked) [Beispiel 38]
- minimal effective concentration (Caenorhabditis elegans): 10 µg/mL

Compound: CC(C)N1C(=O)C(C(=O)Nc2ccc(C(F)(F)F)c(Cl)c2)C(=O)N(C)P1(=O)Oc1cccc(Cl)c1 (centres unmarked) [Beispiel 41]
- minimal effective concentration (Caenorhabditis elegans): 10 µg/mL
- Abtötungsgrad [4]: überlegene Wirkung gegenüber dem Stand der Technik

Compound: CC(C)N1C(=O)C(C(=O)Nc2ccc(SC(F)(F)F)cc2)C(=O)N(C)P1(=O)Oc1cccc(Cl)c1 (centres unmarked) [Beispiel 42]
- minimal effective concentration (Caenorhabditis elegans): 10 µg/mL

Compound: CN1C(=O)C(C(=O)Nc2ccc(SC(F)(F)F)cc2)C(=O)N(c2ccccc2)P1(=O)Oc1ccccc1 (centres unmarked) [Beispiel 44]
- minimal effective concentration (Caenorhabditis elegans): 10 µg/mL

Compound: CCN1C(=O)C(C(=O)Nc2ccc(Oc3ccc(C(F)(F)F)cc3)cc2)C(=O)N(C)P1(=O)Oc1cccc(Cl)c1 (centres unmarked) [Beispiel 46]
- minimal effective concentration (Caenorhabditis elegans): 10 µg/mL

Compound: CC(C)N1C(=O)C(C(=O)Nc2ccc(C(F)(F)F)cc2C(F)(F)F)C(=O)N(Cc2ccccc2)P1(=O)Oc1cccc(Cl)c1 (centres unmarked) [Beispiel 51]
- minimal effective concentration (Caenorhabditis elegans): 100 µg/mL

Compound: Cc1cccc(OP2(=O)N(C)C(=O)C(C(=O)Nc3ccc(SC(F)(F)F)cc3)C(=O)N2C(C)C)c1 (centres unmarked) [Beispiel 54]
- minimal effective concentration (Caenorhabditis elegans): 10 µg/mL

Compound: CCN1C(=O)C(C(=O)Nc2ccc(C(F)(F)F)c(Cl)c2)C(=O)N(C)P1(=O)Oc1cccc(Cl)c1 (centres unmarked) [Beispiel 55]
- minimal effective concentration (Caenorhabditis elegans): 10 µg/mL

Compound: CCN1C(=O)C(C(=O)Nc2ccc(C(F)(F)F)cc2C(F)(F)F)C(=O)N(C)P1(=O)Oc1cccc(Cl)c1 (centres unmarked) [Beispiel 56]
- minimal effective concentration (Caenorhabditis elegans): 10 µg/mL

Compound: CCN1C(=O)C(C(=O)Nc2ccc(Cl)c(C(F)(F)F)c2)C(=O)N(C)P1(=O)Oc1cccc(Cl)c1 (centres unmarked) [Beispiel 57]
- minimal effective concentration (Caenorhabditis elegans): 10 µg/mL

Compound: CCN1C(=O)C(C(=O)Nc2ccc(SC(F)(F)F)cc2)C(=O)N(C)P1(=O)Oc1cccc(Cl)c1 (centres unmarked) [Beispiel 58]
- minimal effective concentration (Caenorhabditis elegans): 10 µg/mL

Compound: CCN1C(=O)C(C(=O)Nc2ccc(OC(F)(F)F)cc2)C(=O)N(C)P1(=O)Oc1cccc(Cl)c1 (centres unmarked) [Beispiel 59]
- minimal effective concentration (Caenorhabditis elegans): 10 µg/mL

Compound: CCN1C(=O)C(C(=O)Nc2ccc(C(F)(F)F)c(C(F)(F)F)c2)C(=O)N(C)P1(=O)Oc1cccc(Cl)c1 (centres unmarked) [Beispiel 61]
- minimal effective concentration (Caenorhabditis elegans): 10 µg/mL

Compound: CC(C)N1C(=O)C(C(=S)Nc2ccccc2)C(=O)N(C)P1(=O)Oc1cccc(Cl)c1 (centres unmarked) [Beispiel 62]
- minimal effective concentration (Caenorhabditis elegans): 100 µg/mL

Compound: CC(C)N1C(=O)C(C(=O)Nc2ccc(SC(F)(F)F)c(Cl)c2)C(=O)N(C)P1(=O)Oc1cccc(Cl)c1 (centres unmarked) [Beispiel 64]
- minimal effective concentration (Caenorhabditis elegans): 10 µg/mL

Compound: Cc1cccc(OP2(=O)N(C)C(=O)C(C(=O)Nc3ccc(Cl)c(C(F)(F)F)c3)C(=O)N2C(C)C)c1 (centres unmarked) [Beispiel 65]
- minimal effective concentration (Caenorhabditis elegans): 10 µg/mL
